Source: the NIST ThermoML archive (doi:10.1021/je400054m)
Numbers after ± are expanded uncertainties.

What was measured:
[1] = Molar enthalpy of transition or fusion; settings: DSC
[2] = DTA

| SMILES | Molar enthalpy of transition or fusion ([1]; Crystal 1) | Molar enthalpy of transition or fusion ([1]; Crystal 2) | Normal melting temperature ([2]; Crystal 1) | Triple point temperature ([2]; Crystal 2) | Molar enthalpy of transition or fusion ([1]; Crystal) | Normal melting temperature ([2]; Crystal) | Molar enthalpy of transition or fusion ([1]; Crystal 3) | Triple point temperature ([2]; Crystal 3) |
| --- | --- | --- | --- | --- | --- | --- | --- | --- |
| CCCCCCC(=O)[O-].[Li+] [lithium heptanoate] | 5.93 ± 0.382 kcal/mol | 1.49 ± 0.1 kcal/mol | 274.40 ± 0.7 °C | 316.55 ± 0.7 K | – | – | – | – |
| CCCCCC(=O)[O-].[Li+] [lithium hexanoate] | – | – | – | – | 5.49 ± 0.359 kcal/mol | 287.20 ± 0.7 °C | – | – |
| CCCCCCCCC(=O)[O-].[Li+] [lithium nonanoate] | 6.13 ± 0.382 kcal/mol | 1.92 ± 0.129 kcal/mol | 251.10 ± 0.7 °C | 348.95 ± 0.7 K | – | – | – | – |
| CCCCC(=O)[O-].[Li+] [lithium pentanoate] | 5.25 ± 0.335 kcal/mol | 0.941 ± 0.0693 kcal/mol | 301.10 ± 0.7 °C | 323.45 ± 0.7 K | – | – | – | – |
| CCC(=O)[O-].[Li+] [propionic acid, lithium salt] | 3.81 ± 0.239 kcal/mol | 0.817 ± 0.0645 kcal/mol | 331.00 ± 0.7 °C | 530.55 ± 0.7 K | – | – | – | – |
| CCCCCCCCCC(=O)[O-].[Li+] [lithium decanoate] | – | 0.111 ± 0.0287 kcal/mol | – | 309.65 ± 0.7 K | – | – | – | – |
| O=C[O-].[Li+] [lithium methanoate] | 3.84 ± 0.239 kcal/mol | 0.451 ± 0.043 kcal/mol | 272.20 ± 0.7 °C | 508.55 ± 0.7 K | – | – | – | – |
| CCCC(=O)[O-].[Li+] [lithium butanoate] | – | – | – | – | 4.96 ± 0.311 kcal/mol | 316.80 ± 0.7 °C | – | – |
| CCCCCCCC(=O)[O-].[Li+] [lithium octanoate] | – | – | – | – | 5.73 ± 0.359 kcal/mol | 264.30 ± 0.7 °C | – | – |
| CCCCCCCCCCC(=O)[O-].[Li+] [lithium undecanoate] | 6.76 ± 0.43 kcal/mol | 3.3 ± 0.21 kcal/mol | 235.50 ± 0.7 °C | 364.55 ± 0.7 K | – | – | – | – |
| CCCCCCCCCCCC(=O)[O-].[Li+] [lithium dodecanoate] | 6.78 ± 0.43 kcal/mol | 1.66 ± 0.112 kcal/mol | 227.40 ± 0.7 °C | 346.05 ± 0.7 K | – | – | 0.138 ± 0.0335 kcal/mol | 314.45 ± 0.7 K |
| CC(=O)[O-].[Li+] [lithium acetate] | – | – | – | – | 2.87 ± 0.186 kcal/mol | 283.10 ± 0.7 °C | – | – |
